Reference: paper PMC4746629, “Small-molecule inhibition of PTPRZ reduces tumor growth in a rat model of glioblastoma” (Scientific Reports, 2016)
Entries after “also recorded” stand apart in the source; their conditions may differ. Values belong to the compound of their own block, whether it stands above or below them.

Experiments:
PTPRZ-ICR [1] = target: T1, PTPRZ-ICR (Homo sapiens, UniProt P23471, DEL1723-1729); assay: In vitro dephosphorylation assay, single concentration of SCB4380 analogues; type: biochemical; parameters: PTPRZ (ICR, amino acid residues 1698-2315); FLAG (followed by HRV 3C site) (N, cleaved yes); made in house; host or cells: silkworm (Bombyx mori) pupae, BmNPV baculovirus; details: compound 10 μM, substrate 20 μM, human PTPRZ-ICR 0.1 nM
From the text: No significant effects were detected with compounds 7 to 10. TEXT PRINTED IN THE PICTURE: (B) 7: (no inhibition) | (B) 8: (no inhibition) | (B) 9: (no inhibition) | (B) 10: (no inhibition)

PTPRZ-ICR N1758D mutant = PTPRZ-ICR N1758D mutant (Homo sapiens, UniProt P23471, DEL1723-1729/N1758D); assay: Inhibitor sensitivity of site-directed mutant, pCAP assay; details: compounds 10 μM, 20 μM pCAP-GIT1_549–556
Protocol: (G) Inhibitor sensitivity.
(§1) Two hundred microliters of pCAP-peptide substrates (20 μM) in a three-component buffer of pH 7.0 (100 mM acetate, 50 mM Tris, and 50 mM Bis-Tris) containing 5 mM DTT and 0.01% (v/v) Brij-35 were preincubated in a cuvette at room temperature. The reaction was initiated by adding 2 μl of an enzyme solution, and incubated for ~100 s; the amount of the enzyme was adjusted to give a convenient rate. Compounds were then added to the same cuvette at a 1/100 volume. In each experiment, the hydrolysis of the pCAP residue was continuously monitored as an increase in fluorescence at 460 nm (excitation at 334 nm) using a spectrofluorometer (FI-4500, Hitachi). We measured the slope of the linear increase of the fluorescence signal as an indicator of catalytic activity, which was obtained during the 40 s before and after the addition of a compound. The inhibitory effects of each compound were determined by the ratio of the activities, and indicated as the relative value to that of DMSO control.
(§2) respective full-length clones, and the cDNA fragments were fused in frame to the
(§3) coding sequence of glutathione S-transferase (GST) of the Escherichia coli (E. coli)
(§4) expression vector, pGEX-6P (GE Healthcare).
(§5) point mutants, pGEX-6P-PTPRZ-ICR was used as a template with a Quikchange
(§6) multisite-directed mutagenesis kit (Stratagene).

PTPRZ-ICR [2] = target: T1, PTPRZ-ICR; assay: Mass spectrometry under non-denaturing conditions (native MS) binding
Protocol: PTPRZ-ICR was mixed with the indicated compounds, and their binding to PTPRZ-ICR was monitored by MS under non-denaturing conditions. […] The concentrations of PTPRZ-ICR proteins used for the assay were estimated to be approximately 0.2 to 0.3 μM by SDS-PAGE followed by CBB staining.
Ten microliter aliquots were mixed with equal volumes of each compound solution, and the samples were immediately analyzed by nanoflow electrospray using in-house made gold-coated glass capillaries (~2 μl sample was loaded for each analysis). […] Spectra were calibrated using 1 mg/ml cesium iodide, and analyzed by Mass Lynx software (Waters).

PTPRZ-ICR Y1756F mutant = PTPRZ-ICR Y1756F mutant (Homo sapiens, UniProt P23471, DEL1723-1729/Y1756F); assay: Inhibitor sensitivity of site-directed mutant, pCAP assay; details: compounds 10 μM or vanadate 200 μM, 20 μM pCAP-GIT1_549–556
Protocol: (G) Inhibitor sensitivity.
as §1, §2, §3, §4, §5, §6

human PTPN6 = target: T2, human PTPN6 (Homo sapiens, UniProt P29350); assay: PTP selectivity assay with DiFMUP substrate
T2 sequence (P29350 220-523): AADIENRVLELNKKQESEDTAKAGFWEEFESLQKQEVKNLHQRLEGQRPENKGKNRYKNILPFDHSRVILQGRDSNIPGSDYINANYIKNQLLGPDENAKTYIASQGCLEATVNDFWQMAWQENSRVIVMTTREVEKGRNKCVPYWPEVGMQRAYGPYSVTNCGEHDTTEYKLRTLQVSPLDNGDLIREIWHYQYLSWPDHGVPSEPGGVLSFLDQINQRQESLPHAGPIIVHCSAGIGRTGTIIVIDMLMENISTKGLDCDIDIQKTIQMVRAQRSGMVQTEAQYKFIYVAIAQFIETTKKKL
Protocol: (§7) Human PTPRZ-ICR (0.1 nM) was added to the substrate solution (closed arrowheads), and was followed by the addition of test compounds at the indicated concentrations (open arrowheads). The slope of the fluorescence signal during the 40 s before and after the addition of a compound was measured, and the inhibitory effects of each compound were determined by the ratio of the two. […] The inhibition assay was performed with 20 μM DiFMUP, a non-specific PTP substrate.
(§8) pCAP substrate, and DMSO were 10 µg/ml, 20 µM, and 1% (v/v), respectively.
(§9) Fluorescence was measured at excitation/emission wavelengths of 380/460 nm
(§10) using an EnVision Multilabel Reader (PerkinElmer).
(§11) calculated by nonlinear regression (JMP software, SAS Institute).
(§12) type was analyzed by a Lineweaver-Burk plot according to Michaelis-Menten
(§13) BSA, 5 mM DTT and 0.01% Brij-35) with DiFMUP
(§14) (6,8-difluoro-4-methylumbiliferyl phosphate, Molecular probe) as a nonspecific PTP
(§15) substrate. One hundred microliters of 40 µM DiFMUP were preincubated in a
cuvette at room temperature.
(§16) In each experiment, the hydrolysis of DiFMUP
(§17) was continuously monitored for ~100 s as an increase in fluorescence at 455 nm
(§18) (excitation at 358 nm) using a spectrofluorometer (FI-4500, Hitachi). We
(§19) measured the slope of the linear increase of the fluorescence signal as an indicator
(§20) of catalytic activity. IC50 values were determined as above.

PTPRZ-ICR [3] = target: T1, PTPRZ-ICR; assay: Isothermal titration calorimetry
Protocol: Titration isotherm (with error bars). The isotherm was fit to a one-to-one binding model (solid line) using the program SEDPHAT (ref. [48]) with a 1:1 binding model (B). The single dissociation constant and enthalpy change are indicated in the inset. Residuals calculated by subtracting fit values from observed values (C).
The titration sequence included a single 0.4 μl injection followed by 19 injections of 2 μl each at an interval of 120 s between the injections.

[4] = Stability of SCB4380 in C6 cells, time-lapse microscopy after microinjection; type: cell-based, rat; details: rat; after direct microinjection, time-lapse microscopy; read-out: Average half-life for disappearance of the fluorescent signal in C6 cells
C6 cells = assay: as above; type: cell-based, rat
human PTPRS = target: T3, human PTPRS (Homo sapiens, UniProt Q13332); assay: PTP selectivity assay with DiFMUP substrate
T3 sequence (Q13332 1304-1948): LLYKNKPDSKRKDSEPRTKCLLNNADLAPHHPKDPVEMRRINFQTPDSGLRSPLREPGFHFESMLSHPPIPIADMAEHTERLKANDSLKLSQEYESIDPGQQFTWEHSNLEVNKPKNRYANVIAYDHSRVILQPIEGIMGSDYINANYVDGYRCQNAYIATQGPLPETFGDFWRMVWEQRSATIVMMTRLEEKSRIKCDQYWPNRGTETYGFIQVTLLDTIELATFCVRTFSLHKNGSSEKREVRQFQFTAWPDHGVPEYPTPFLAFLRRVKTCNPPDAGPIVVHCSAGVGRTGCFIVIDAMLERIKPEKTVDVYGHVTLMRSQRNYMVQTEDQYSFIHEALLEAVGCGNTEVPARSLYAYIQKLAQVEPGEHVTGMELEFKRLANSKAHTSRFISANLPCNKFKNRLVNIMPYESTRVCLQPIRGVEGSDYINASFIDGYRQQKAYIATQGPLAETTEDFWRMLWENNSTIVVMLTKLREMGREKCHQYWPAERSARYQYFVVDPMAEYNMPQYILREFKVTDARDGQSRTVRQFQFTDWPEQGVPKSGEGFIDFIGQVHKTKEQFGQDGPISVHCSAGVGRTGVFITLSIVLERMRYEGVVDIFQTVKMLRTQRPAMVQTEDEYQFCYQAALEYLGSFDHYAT
Protocol: as §7, §8, §9, §10, §11, §12, §13, §14, §15
cuvette at room temperature.
as §16, §17, §18, §19, §20

[5] = Parallel artificial membrane permeability assay (PAMPA); type: in vitro ADME
human PTPRM = human PTPRM (Homo sapiens, UniProt P28827); assay: PTP selectivity assay with DiFMUP substrate
Protocol: as §7
(§21) min with 1 M Tris HCl, pH 9.2 (20 µl). The final concentrations of compounds, the
as §8, §9
(§22) using an EnVision Multilabel Reader (PerkinElmer). A decrease of more than
(§23) 40% in the signal intensity against the DMSO control was considered to be a
(§24) potential hit, and reproducibility was examined with a freshly prepared stock.
(§25) three-component buffer at pH 7.0 using a 384-well plate. The reaction was […]
(§26) calculated by nonlinear regression (JMP software, SAS Institute). […]
(§27) type was analyzed by a Lineweaver-Burk plot according to Michaelis-Menten […]
(§28) was continuously monitored for ~100 s as an increase in fluorescence at 455 nm […]
as §19, §20

human PTPRG = human PTPRG (Homo sapiens, UniProt P23470); assay: PTP selectivity assay with DiFMUP substrate
Protocol: as §7, §21, §8, §9, §22, §23, §24, §25, §26, §27, §28, §19, §20

PTPRZ = PTPRZ (Homo sapiens, UniProt P23471, DEL1723-1729); assay: PTP selectivity assay with DiFMUP substrate
Protocol: as §7, §21, §8, §9, §22, §23, §24, §25, §26, §27, §28, §19, §20

human PTPN1 = target: T4, human PTPN1 (Homo sapiens, UniProt P18031); assay: PTP selectivity assay with DiFMUP substrate
T4 sequence (P18031 1-321): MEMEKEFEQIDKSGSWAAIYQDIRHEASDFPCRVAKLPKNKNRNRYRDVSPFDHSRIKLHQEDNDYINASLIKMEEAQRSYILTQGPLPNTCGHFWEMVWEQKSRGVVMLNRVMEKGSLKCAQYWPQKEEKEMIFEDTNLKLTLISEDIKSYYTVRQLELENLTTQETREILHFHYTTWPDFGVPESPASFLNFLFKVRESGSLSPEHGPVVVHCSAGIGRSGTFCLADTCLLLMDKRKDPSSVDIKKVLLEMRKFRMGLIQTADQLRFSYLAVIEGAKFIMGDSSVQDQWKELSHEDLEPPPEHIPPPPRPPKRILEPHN
Protocol: as §7, §8, §9, §10, §11, §12, §13, §14, §15
cuvette at room temperature.
as §16, §17, §18, §19, §20

human PTPRA = human PTPRA (Homo sapiens, UniProt P18433); assay: PTP selectivity assay with DiFMUP substrate
Protocol: as §7, §21, §8, §9, §22, §23, §24, §25, §26, §27, §28, §19, §20

PTPRZ-ICR [6] = target: T1, PTPRZ-ICR; assay: Hydrolysis of pCAP-GIT1_549–556 by human PTPRZ-ICR, IC50 and kinetic analysis
Protocol: as §7, §21, §8, §9, §22, §23, §24, §25, §26, §27, §28, §19, §20

mouse PTPRB = mouse PTPRB (Mus musculus, UniProt B2RU80); assay: PTP selectivity assay with DiFMUP substrate
Protocol: as §7, §8, §9, §10, §11, §12, §13, §14, §15
cuvette at room temperature.
as §16, §17, §18, §19, §20

C6 glioblastoma cells = assay: Cell proliferation assay; type: cell-based, rat; details: parent C6 cells, liposome delivery

PTPRZ-ICR N1758D mutant, sequence (P23471 1698-2308 isoform P23471-2 N1751D limits assumed): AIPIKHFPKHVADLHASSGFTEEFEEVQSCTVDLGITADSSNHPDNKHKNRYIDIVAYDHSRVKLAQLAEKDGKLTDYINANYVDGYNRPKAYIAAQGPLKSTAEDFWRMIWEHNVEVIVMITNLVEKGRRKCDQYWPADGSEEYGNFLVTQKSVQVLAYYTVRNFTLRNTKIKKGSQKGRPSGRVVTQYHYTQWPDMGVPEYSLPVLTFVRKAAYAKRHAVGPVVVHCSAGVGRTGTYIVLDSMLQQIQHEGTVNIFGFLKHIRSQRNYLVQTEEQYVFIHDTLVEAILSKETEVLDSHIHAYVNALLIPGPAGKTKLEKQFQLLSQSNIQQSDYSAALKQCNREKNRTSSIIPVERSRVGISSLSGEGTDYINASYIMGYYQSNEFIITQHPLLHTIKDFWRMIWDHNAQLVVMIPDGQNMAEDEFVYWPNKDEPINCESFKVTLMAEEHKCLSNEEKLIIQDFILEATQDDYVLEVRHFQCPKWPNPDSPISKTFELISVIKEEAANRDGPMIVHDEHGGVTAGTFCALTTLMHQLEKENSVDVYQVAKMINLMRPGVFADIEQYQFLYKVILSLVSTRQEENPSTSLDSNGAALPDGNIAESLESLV
T1 sequence (P23471 1698-2308 isoform P23471-2 limits assumed, stated change not applied): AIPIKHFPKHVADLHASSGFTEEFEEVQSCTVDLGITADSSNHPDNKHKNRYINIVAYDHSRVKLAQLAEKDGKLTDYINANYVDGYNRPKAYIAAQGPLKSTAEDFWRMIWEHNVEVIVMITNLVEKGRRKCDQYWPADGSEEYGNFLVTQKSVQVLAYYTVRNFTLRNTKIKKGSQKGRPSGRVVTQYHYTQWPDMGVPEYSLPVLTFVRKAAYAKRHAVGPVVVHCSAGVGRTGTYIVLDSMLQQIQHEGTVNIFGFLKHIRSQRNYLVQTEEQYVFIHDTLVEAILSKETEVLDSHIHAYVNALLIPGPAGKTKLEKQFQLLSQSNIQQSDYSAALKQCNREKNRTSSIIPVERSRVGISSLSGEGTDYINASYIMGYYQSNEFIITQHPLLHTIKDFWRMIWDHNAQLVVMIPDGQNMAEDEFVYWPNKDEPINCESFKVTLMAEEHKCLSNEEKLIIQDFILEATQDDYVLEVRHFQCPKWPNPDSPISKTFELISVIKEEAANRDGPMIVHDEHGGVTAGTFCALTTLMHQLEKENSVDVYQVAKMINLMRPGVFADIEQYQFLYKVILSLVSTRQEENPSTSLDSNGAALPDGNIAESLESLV
PTPRZ-ICR Y1756F mutant, sequence (P23471 1698-2308 isoform P23471-2 Y1749F limits assumed): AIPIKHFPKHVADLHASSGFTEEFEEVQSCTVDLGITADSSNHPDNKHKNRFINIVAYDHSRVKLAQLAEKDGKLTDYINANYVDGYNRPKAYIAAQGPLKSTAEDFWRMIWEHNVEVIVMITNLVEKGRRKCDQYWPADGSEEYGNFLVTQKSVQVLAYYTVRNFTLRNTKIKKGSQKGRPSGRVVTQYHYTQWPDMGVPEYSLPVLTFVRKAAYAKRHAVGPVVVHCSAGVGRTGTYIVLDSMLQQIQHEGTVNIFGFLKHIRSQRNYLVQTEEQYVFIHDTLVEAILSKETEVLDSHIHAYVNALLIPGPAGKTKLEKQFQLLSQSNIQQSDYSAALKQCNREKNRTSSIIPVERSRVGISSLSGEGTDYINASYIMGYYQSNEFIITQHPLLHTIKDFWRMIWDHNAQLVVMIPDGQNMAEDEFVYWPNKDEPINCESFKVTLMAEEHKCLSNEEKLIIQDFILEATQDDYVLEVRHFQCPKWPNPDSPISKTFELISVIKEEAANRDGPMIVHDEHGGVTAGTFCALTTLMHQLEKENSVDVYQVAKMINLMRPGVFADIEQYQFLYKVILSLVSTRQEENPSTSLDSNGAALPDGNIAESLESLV
mouse PTPRB, sequence (B2RU80 1644-1997 limits assumed): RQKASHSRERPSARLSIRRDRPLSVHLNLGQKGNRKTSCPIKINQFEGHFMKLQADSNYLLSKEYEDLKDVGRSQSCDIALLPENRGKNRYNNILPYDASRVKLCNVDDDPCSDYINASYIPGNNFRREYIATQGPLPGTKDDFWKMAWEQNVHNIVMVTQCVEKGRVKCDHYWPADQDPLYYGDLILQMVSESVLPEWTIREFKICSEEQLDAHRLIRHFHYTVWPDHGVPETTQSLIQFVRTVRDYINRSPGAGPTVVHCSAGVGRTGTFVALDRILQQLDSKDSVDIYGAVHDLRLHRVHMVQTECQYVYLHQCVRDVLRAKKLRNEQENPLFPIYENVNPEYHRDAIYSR
human PTPRM, sequence (P28827 765-1452): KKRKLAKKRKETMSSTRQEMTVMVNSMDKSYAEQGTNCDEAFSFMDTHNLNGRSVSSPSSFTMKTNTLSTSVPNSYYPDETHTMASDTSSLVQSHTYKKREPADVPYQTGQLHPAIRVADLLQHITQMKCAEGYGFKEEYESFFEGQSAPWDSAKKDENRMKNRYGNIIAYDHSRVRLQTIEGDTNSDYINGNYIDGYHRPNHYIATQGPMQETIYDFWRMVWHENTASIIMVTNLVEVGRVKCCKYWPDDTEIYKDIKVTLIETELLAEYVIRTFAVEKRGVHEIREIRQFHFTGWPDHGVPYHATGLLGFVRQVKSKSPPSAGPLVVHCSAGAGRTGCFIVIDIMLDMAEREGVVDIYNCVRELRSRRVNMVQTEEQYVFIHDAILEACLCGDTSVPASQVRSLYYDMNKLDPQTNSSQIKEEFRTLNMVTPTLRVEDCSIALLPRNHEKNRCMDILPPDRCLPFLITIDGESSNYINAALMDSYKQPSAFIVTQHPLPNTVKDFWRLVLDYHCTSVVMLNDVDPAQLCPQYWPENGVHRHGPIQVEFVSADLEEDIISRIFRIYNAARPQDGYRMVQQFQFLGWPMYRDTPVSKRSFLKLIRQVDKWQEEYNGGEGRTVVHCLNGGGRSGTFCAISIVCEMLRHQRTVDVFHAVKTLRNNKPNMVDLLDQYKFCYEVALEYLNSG
PTPRZ, sequence (P23471 1698-2308 isoform P23471-2 limits assumed, stated change not applied): as the sequence (P23471 1698-2308 isoform P23471-2 limits assumed, stated change not applied) above
human PTPRG, sequence (P23470 790-1445): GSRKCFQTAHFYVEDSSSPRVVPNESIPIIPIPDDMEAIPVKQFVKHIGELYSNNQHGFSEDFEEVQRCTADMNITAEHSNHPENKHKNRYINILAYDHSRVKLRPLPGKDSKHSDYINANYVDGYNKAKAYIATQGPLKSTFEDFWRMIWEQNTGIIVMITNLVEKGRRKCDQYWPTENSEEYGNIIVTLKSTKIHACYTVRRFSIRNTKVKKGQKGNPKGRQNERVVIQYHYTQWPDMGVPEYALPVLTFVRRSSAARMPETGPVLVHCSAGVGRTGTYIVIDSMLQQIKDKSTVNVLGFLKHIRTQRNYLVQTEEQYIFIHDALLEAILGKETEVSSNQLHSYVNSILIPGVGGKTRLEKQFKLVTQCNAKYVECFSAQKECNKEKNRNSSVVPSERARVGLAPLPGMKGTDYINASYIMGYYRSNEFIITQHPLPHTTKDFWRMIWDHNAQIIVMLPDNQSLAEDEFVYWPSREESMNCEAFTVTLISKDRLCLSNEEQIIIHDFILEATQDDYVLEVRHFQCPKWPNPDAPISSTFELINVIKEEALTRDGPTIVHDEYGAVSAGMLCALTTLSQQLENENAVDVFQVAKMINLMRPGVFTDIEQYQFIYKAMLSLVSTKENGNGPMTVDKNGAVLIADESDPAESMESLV

SMILES: O=[N+]([O-])c1ccc(N=Nc2c(O)c(S(=O)(=O)[O-])cc3cc(S(=O)(=O)[O-])ccc23)cc1.[Na+].[Na+] [compound 6, sodium 3-hydroxy-4-[(4-nitrophenyl)diazenyl]-2,7-naphthalenedisulfonate]
Inhibitory effect on hydrolysis of pCAP-GIT1_549–556 (residual enzymatic activity relative to DMSO control) (PTPRZ-ICR [1]): markedly abolished inhibitory activity; also recorded: weakly inhibited

SMILES: O=S(=O)([O-])c1ccc2c(N=Nc3ccc(S(=O)(=O)[O-])c4ccccc34)c(O)ccc2c1.[Na+].[Na+] [compound 3, disodium 6-hydroxy-5-[(4-sulfonato-1-naphthyl)diazenyl]-2-naphthalene sulfonate]
Inhibitor sensitivity of N1758D mutant versus wild-type enzyme (PTPRZ-ICR N1758D mutant): no changes in sensitivity | Binding to PTPRZ-ICR by native MS (PTPRZ-ICR [2]): no binding activity

SMILES: [O]=[V]([O-])([O-])[O-] [vanadate, reference compound]
Inhibitor sensitivity of Y1756F mutant versus wild-type enzyme (PTPRZ-ICR Y1756F mutant): not by vanadate

SMILES: O=S(=O)([O-])c1ccc2c(N=Nc3ccc(S(=O)(=O)[O-])c4ccccc34)c(O)c(S(=O)(=O)[O-])cc2c1.[Na+].[Na+].[Na+] [SCB4380, trisodium 3-hydroxy-4-[(4-sulfonato-1-naphthyl)diazenyl]-2,7-naphthalenedisulfonate]
IC50 (human PTPN6): 24.6 µM | Kd (PTPRZ-ICR [3]): 1.23 µM | ΔH (enthalpy change, ITC) (PTPRZ-ICR [3]; 298.15 K, pH 7.5): -14 kcal/mol | half-life [4]: ~50 min | Stability in living cells (C6 cells): substantial instability | IC50 (human PTPRS): 14.8 µM | Membrane permeability [5]: deficient and low | IC50 (human PTPRM): 60.7 µM | IC50 (human PTPRG): 0.4 µM | Inhibitor sensitivity of Y1756F mutant versus wild-type enzyme (PTPRZ-ICR Y1756F mutant): impaired the inhibition by SCB4380 markedly | IC50 (PTPRZ): 0.4 µM | Inhibitor sensitivity of N1758D mutant versus wild-type enzyme (PTPRZ-ICR N1758D mutant): resistant to inhibition | IC50 (human PTPN1): 19.5 µM | IC50 (human PTPRA): 75.7 µM | Binding to PTPRZ-ICR by native MS (PTPRZ-ICR [2]): bound to Z-ICR in a one-to-one stoichiometry | IC50 (PTPRZ-ICR [6]): 0.4 µM | Inhibition type by Lineweaver-Burk plot analysis (PTPRZ-ICR [6]; human PTPRZ-ICR, pCAP-peptide substrate): competitive | IC50 (mouse PTPRB): 73.8 µM

SMILES: O=S(=O)([O-])c1cc(S(=O)(=O)[O-])c2c(N=Nc3ccc(S(=O)(=O)[O-])c4ccccc34)c(O)ccc2c1.[Na+].[Na+].[Na+] [compound 2, trisodium 7-hydroxy-8-[(4-sulfonato-1-naphthyl)diazenyl]-1,3-naphthalenedisulfonate]
Inhibitory effect on hydrolysis of pCAP-GIT1_549–556 (residual enzymatic activity relative to DMSO control) (PTPRZ-ICR [1]): almost no inhibition | Proliferation of C6 glioblastoma cells (increase in cell number in 24 h) (C6 glioblastoma cells): did not show suppressive effects | Binding to PTPRZ-ICR by native MS (PTPRZ-ICR [2]): no binding activity

Continued, values first:

Inhibitory effect on hydrolysis of pCAP-GIT1_549–556 (residual enzymatic activity relative to DMSO control) (PTPRZ-ICR [1]): no inhibition
SMILES: Nc1ccc(S(=O)(=O)O)c2ccccc12 [compound 9, 4-amino-1-naphthalenesulfonic acid]

Inhibitory effect on hydrolysis of pCAP-GIT1_549–556 (residual enzymatic activity relative to DMSO control) (PTPRZ-ICR [1]): no inhibition
SMILES: O=S(=O)([O-])c1ccc2cc(O)c(S(=O)(=O)[O-])cc2c1.[Na+].[Na+] [compound 8, disodium 3-hydroxy-2,7-naphthalenedisulfonate]

Inhibitory effect on hydrolysis of pCAP-GIT1_549–556 (residual enzymatic activity relative to DMSO control) (PTPRZ-ICR [1]): markedly abolished inhibitory activity | Inhibitory effect on hydrolysis of pCAP-GIT1_549–556 (residual enzymatic activity relative to DMSO control) (PTPRZ-ICR [1]; listed as Compound 5): weakly inhibited | Inhibitor sensitivity of N1758D mutant versus wild-type enzyme (PTPRZ-ICR N1758D mutant): resistant to inhibition
SMILES: O=S(=O)([O-])c1ccc2c(N=Nc3cccc4ccccc34)c(O)c(S(=O)(=O)[O-])cc2c1.[Na+].[Na+] [compound 5, disodium 3-hydroxy-4-(1-naphthyldiazenyl)-2,7-naphthalenedisulfonate]

Inhibitor sensitivity of N1758D mutant versus wild-type enzyme (PTPRZ-ICR N1758D mutant): no changes in sensitivity
SMILES: O=S(=O)([O-])c1ccc(N=Nc2c(O)ccc3ccccc23)c2ccccc12.[Na+] [compound 4, sodium 4-(2-hydroxy-1-naphthalenylazo)-1-naphthalenesulfonate]

Inhibitory effect on hydrolysis of pCAP-GIT1_549–556 (residual enzymatic activity relative to DMSO control) (PTPRZ-ICR [1]): no inhibition
SMILES: O=S(=O)(O)c1cccc2ccccc12 [compound 10, sodium 1-naphthalenesulfonate]

Inhibitory effect on hydrolysis of pCAP-GIT1_549–556 (residual enzymatic activity relative to DMSO control) (PTPRZ-ICR [1]): no inhibition
SMILES: O=Nc1c(O)c(S(=O)(=O)O)cc2cc(S(=O)(=O)O)ccc12 [compound 7, disodium 1-nitroso-2-naphthol-3,6-disulfonate monohydrate]
